Results as given in ChEMBL document CHEMBL2074402, “Expression of multidrug resistance-associated protein in NIH/3T3 cells confers multidrug resistance associated with increased drug efflux and altered intracellular drug distribution” (Cancer Res, 1995).
Numbered stars: 1 amine (or outer) side, 2 acyl side, 3 side chain; on linkers, the order of the positions; unused ones are H or OH. Bridge positions count the residues as written; N and C are the ends. Square brackets hold non-standard residues; d marks the D form. Peptide text beside a SMILES is read from it. I, II: the chains in the order shown. Actinocin(9to1) = Cc1c2oc3c(C)ccc(C(=O)[*:1])c3nc-2c(C(=O)[*:2])c(N)c1=O; NMeV = CN[C@H](C(=O)O)C(C)C; Sar = CNCC(=O)O

Target: Multidrug resistance-associated protein 1 (Homo sapiens, UniProt P33527)
Sequence (P33527 whole entry): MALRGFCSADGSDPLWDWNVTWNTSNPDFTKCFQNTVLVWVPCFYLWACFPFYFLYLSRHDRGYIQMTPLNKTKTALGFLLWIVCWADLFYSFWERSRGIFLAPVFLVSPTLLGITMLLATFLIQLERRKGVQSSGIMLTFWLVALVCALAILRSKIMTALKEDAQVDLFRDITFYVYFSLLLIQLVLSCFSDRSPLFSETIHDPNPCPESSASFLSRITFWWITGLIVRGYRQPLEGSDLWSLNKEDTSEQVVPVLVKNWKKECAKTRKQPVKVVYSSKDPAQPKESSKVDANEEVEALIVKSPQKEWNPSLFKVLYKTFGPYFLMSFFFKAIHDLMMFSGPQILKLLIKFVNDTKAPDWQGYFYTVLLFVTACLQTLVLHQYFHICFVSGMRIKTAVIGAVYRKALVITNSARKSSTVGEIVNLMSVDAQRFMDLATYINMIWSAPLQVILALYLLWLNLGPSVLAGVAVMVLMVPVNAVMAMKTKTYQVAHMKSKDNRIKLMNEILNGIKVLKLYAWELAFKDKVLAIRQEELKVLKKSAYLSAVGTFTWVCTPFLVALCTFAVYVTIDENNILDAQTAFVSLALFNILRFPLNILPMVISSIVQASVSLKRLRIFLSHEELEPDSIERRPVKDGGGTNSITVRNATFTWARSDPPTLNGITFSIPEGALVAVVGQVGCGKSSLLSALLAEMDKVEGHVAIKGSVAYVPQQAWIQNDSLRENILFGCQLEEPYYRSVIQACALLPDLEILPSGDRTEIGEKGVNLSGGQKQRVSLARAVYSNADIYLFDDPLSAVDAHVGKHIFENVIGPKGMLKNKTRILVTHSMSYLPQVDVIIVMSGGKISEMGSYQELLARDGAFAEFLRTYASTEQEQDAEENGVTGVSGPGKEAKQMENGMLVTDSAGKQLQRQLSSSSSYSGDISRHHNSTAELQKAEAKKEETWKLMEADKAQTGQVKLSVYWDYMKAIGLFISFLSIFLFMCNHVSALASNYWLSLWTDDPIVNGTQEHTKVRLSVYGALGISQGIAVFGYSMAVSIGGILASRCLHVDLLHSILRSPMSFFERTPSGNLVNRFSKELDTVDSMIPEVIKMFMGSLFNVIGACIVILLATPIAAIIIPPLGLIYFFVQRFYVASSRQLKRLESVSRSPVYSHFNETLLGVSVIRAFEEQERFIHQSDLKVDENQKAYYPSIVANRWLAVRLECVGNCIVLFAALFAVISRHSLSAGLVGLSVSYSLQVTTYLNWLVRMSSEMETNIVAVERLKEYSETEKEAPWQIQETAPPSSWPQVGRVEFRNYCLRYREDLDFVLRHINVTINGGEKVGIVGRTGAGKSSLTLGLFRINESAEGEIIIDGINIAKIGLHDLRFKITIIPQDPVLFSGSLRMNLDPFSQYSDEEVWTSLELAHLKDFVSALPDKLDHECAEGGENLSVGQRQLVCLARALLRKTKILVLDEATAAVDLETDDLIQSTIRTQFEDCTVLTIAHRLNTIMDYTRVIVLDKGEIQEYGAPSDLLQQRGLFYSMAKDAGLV
Assay: TP_TRANSPORTER: drug sensitivity in MRP1-expressing NIH/3T3 cells
Type: functional, cell-based
Settings: mouse, nih3t3

Activity: substrate [+]
SMILES: Cc1c2oc3c(C)ccc(C(=O)N[C@@H]4C(=O)N[C@H](C(C)C)C(=O)N5CCC[C@H]5C(=O)N(C)CC(=O)N(C)[C@@H](C(C)C)C(=O)O[C@@H]4C)c3nc-2c(C(=O)N[C@@H]2C(=O)N[C@H](C(C)C)C(=O)N3CCC[C@H]3C(=O)N(C)CC(=O)N(C)[C@@H](C(C)C)C(=O)O[C@@H]2C)c(N)c1=O [DACTINOMYCIN] (I: T[dV]P[Sar][NMeV] / II: T[dV]P[Sar][NMeV]; ester I:1-I:C, II:1-II:C; linker I:N-II:N via Actinocin(9to1))
